Measured values: EP4603105A1, “PHARMACEUTICAL COMPOSITION CONTAINING CYCLIC COMPOUND HAVING SELECTIVE KRAS INHIBITORY EFFECT AGAINST HRAS AND NRAS” (CHUGAI SEIYAKU KABUSHIKI KAISHA, priority 2022, dated 2024)
Where two headings read alike, the source gives them in different places.

Columns and labels:
[1] = target: HRAS wild-type protein (Homo sapiens, UniProt P01112); test: Binding to HRAS by surface plasmon resonance (SPR), KD and KD ratio to KRAS
Method in brief: (§1)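 Single-cycle kinetics on GDP-loaded biotin-Avi RAS captured to ~100–300 RU; 75 s ascending injections, 100 µL/min, 30°C. HBS pH 7.4 + 10 mM MgCl2/10 µM GDP/4% DMSO. 1:1 fit, KD.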

[2] = target: GDP-bound KRAS wild-type protein (Homo sapiens, UniProt P01116); test: Binding to KRAS by surface plasmon resonance (SPR), dissociation constant KD
GDP-bound KRAS wild-type protein, sequence (P01116 1-188 isoform P01116-2): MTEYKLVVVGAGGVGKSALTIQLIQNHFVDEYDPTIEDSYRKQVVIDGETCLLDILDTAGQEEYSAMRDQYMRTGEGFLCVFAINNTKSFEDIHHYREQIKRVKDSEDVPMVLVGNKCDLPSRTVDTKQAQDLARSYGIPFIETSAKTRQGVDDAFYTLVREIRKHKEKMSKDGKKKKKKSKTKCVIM
Method in brief: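 Read-out is KD from 1:1 fitting of single-cycle kinetics sensorgrams, blank-cycle and reference-surface corrected. Proteins were GDP-loaded, biotinylated Avi-fusions freshly captured each cycle at roughly 100–300 RU. Runs were at 30°C in HBS pH 7.4 with MgCl2, GDP and 4% DMSO.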

[3] = tested on: human lung cancer strain NCI-H441; test: NCI-H441 cell proliferation inhibitory activity (CellTiter-Glo, 4 days); type: cell-based; settings: read-out: NCl-H441 IC50
Method in brief: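 Proliferation was scored by […] measured after the reagent was added to cultures kept at 37°C in 5% carbon dioxide.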

[4] = target: GDP-bound NRAS wild-type protein (Homo sapiens, UniProt P01111); test: Binding to NRAS by surface plasmon resonance (SPR), KD and KD ratio to KRAS
GDP-bound NRAS wild-type protein, sequence (P01111 whole entry): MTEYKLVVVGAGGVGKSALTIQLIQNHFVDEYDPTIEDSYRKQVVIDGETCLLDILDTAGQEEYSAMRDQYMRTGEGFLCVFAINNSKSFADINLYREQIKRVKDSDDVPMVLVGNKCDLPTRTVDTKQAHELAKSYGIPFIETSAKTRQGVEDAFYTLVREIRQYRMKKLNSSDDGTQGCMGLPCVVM
Method in brief: as §1

[5] = ratio of KD with respect to HRAS wild-type protein to KD with respect to KRAS
[6] = Single Cycle Kinetics, 1:1 binding model
[7] = 50% proliferation inhibitory concentration, four days
[8] = ratio of KD with respect to GDP-bound NRAS wild-type protein to KD with respect to KRAS
[9] = ratio of KD for HRAS wild-type protein to KD for KRAS
[10] = ratio of KD for GDP-bound NRAS wild-type protein to KD for KRAS

HRAS wild-type protein, sequence (P01112 whole entry): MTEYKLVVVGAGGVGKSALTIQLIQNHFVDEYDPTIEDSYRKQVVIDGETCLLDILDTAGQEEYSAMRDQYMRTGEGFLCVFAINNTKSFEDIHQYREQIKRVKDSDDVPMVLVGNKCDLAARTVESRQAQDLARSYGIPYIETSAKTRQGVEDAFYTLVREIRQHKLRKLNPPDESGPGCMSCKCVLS

SMILES	Kd [2, 6] [nM]	IC50 [3, 7] [nM]	Kd ([2]; Single Cycle Kinetics) [nM]	IC50 ([3]; NCI-H441 cells, 4 days) [nM]	Kd ([2]; 1:1 binding model) [nM]	HRAS /KRAS [1, 5]	NRAS /KRAS [4, 8]	HRAS /KRAS [1, 9]	NRAS /KRAS [4, 10]
C#CC[C@H]1C(=O)N[C@@H]([C@@H](C)CC)C(=O)N(C)CC(=O)N(C)[C@H]2C/C=C\CCN(C2=O)[C@@H](Cc2ccc(C)cc2)C(=O)N(C)CC(=O)N[C@@H](CCc2ccc(C(F)(F)F)c(Cl)c2)C(=O)N2C[C@H](OCC)C[C@H]2C(=O)N(C)C2(CCC2)C(=O)N(C)[C@@H](C2CCCC2)C(=O)N(C)[C@H](C(=O)N(C)C)CC(=O)N1C [PP3240]			0.024	2.3				A (a compound having 10 or more and less than 20 is denoted as A)	A (a compound having 10 or more and less than 20 is denoted as A)
CCO[C@@H]1C[C@H]2C(=O)NC3(CC(C)(C)C3)C(=O)N(C)[C@@H](C(CC)CC)C(=O)N(C)[C@H](C(=O)N(C)C)CC(=O)N(C)[C@@H](C(C)C)C(=O)N[C@@H]([C@@H](C)CC)C(=O)N(C)CC(=O)N(C)[C@H]3C/C=C\CCN(C3=O)[C@@H](CC3CCC(F)(F)CC3)C(=O)N(C)CC(=O)N[C@@H](CCc3ccc(C(F)(F)F)c(OC)c3)C(=O)N2C1 [PP2477]				127	1.8			A (a compound having 10 or more and less than 20 is denoted as A)	A (a compound having 10 or more and less than 20 is denoted as A)
CCO[C@@H]1C[C@H]2C(=O)NC3(CC(C)(C)C3)C(=O)N(C)[C@@H](C3CCCC3)C(=O)N(C)[C@H](C(=O)N(C)CC)CC(=O)N(C)[C@@H]([C@H](C)OC)C(=O)N[C@@H]([C@@H](C)CC)C(=O)N3CCC[C@H]3C(=O)N(C)[C@H]3C/C=C\CCN(C3=O)[C@@H](Cc3ccc(C(F)(F)F)cc3)C(=O)N(C)CC(=O)N[C@@H](CCc3ccc(C(F)(F)F)c(Cl)c3)C(=O)N2C1 [PP3224]			1.9	55.4				A (a compound having 10 or more and less than 20 is denoted as A)	A (a compound having 10 or more and less than 20 is denoted as A)
CCC[C@H]1C(=O)N[C@@H]([C@@H](C)CC)C(=O)N2CCCC[C@H]2C(=O)N(C)[C@H]2C/C=C\CCN(C2=O)[C@@H](Cc2ccc(C(F)(F)F)cc2)C(=O)N(C)CC(=O)N[C@@H](CCc2ccc(C(F)(F)F)c(OC)c2)C(=O)N2C[C@H](OCC)C[C@H]2C(=O)N(C)C2(CCC2)C(=O)N(C)[C@@H](C2CCCC2)C(=O)N(C)[C@H](C(=O)N(C)C)CC(=O)N1C [PP3270]			0.43	13.9				B (a compound having 3 or more and less than 10 is denoted as B)	A (a compound having 10 or more and less than 20 is denoted as A)
C=C(C)C[C@H]1C(=O)N(C)[C@H](C(=O)N(C)C)CC(=O)N(C)[C@@H](CC(C)C)C(=O)N[C@@H]([C@@H](C)CC)C(=O)N(C)CC(=O)N(C)[C@H]2C/C=C\CCN(C2=O)[C@@H](Cc2ccc(C)cc2)C(=O)N(C)CC(=O)N[C@@H](CCc2cc(F)c(C(F)(F)F)c(F)c2)C(=O)N2C[C@H](OCC)C[C@H]2C(=O)N(C)C2(CCC2)C(=O)N1C [PP3349]			1.7	15.7				A (a compound having 10 or more and less than 20 is denoted as A)	A (a compound having 10 or more and less than 20 is denoted as A)
CCC(CC)[C@H]1C(=O)N(C)[C@H](C(=O)N(C)C)CC(=O)N(C)[C@@H](CC2CC2)C(=O)N[C@@H]([C@@H](C)CC)C(=O)N(C)CC(=O)N(C)[C@H]2C/C=C\CCN(C2=O)[C@@H](CC2CCC(F)(F)CC2)C(=O)N(C)CC(=O)N[C@@H](CCc2cc(F)c(C(F)(F)F)c(F)c2)C(=O)N2C[C@@H](C)C[C@H]2C(=O)NC2(CC(C)(C)C2)C(=O)N1C [PP2500]				125	1.7			A (a compound having 10 or more and less than 20 is denoted as A)	A (a compound having 10 or more and less than 20 is denoted as A)
CCOC[C@H]1C(=O)N[C@@H]([C@@H](C)CC)C(=O)N(C)CC(=O)N(C)[C@H]2C/C=C\CCN(C2=O)[C@@H](Cc2ccc(C(F)(F)F)cc2)C(=O)N(C)CC(=O)N[C@@H](CCc2ccc(Cl)c(Cl)c2)C(=O)N2C[C@H](OCC)C[C@H]2C(=O)NC2(CC(C)(C)C2)C(=O)N(C)[C@@H](CC2CCC2)C(=O)N(C)[C@H](C(=O)N(C)C)CC(=O)N1C [PP2767]				62.6	0.49			A (a compound having 10 or more and less than 20 is denoted as A)	A (a compound having 10 or more and less than 20 is denoted as A)
CCCOC[C@H]1C(=O)N[C@@H]([C@@H](C)CC)C(=O)N(C2CC2)CC(=O)N(C)[C@H]2C/C=C\CCN(C2=O)[C@@H](Cc2ccc(C)cc2)C(=O)N(C)CC(=O)N[C@@H](CCc2ccc(C(F)(F)F)c(OC)c2)C(=O)N2C[C@@H](C)C[C@H]2C(=O)N(C)C2(CCC2)C(=O)N(C)[C@@H](C2CCCC2)C(=O)N(C)[C@H](C(=O)N(C)C)CC(=O)N1C [PP2367]				2.1	0.075			B (a compound having 3 or more and less than 10 is denoted as B)	A (a compound having 10 or more and less than 20 is denoted as A)

Now from value to molecule, other results behind:

Kd [2, 6] [nM]	IC50 [3, 7] [nM]	Kd ([2]; Single Cycle Kinetics) [nM]	IC50 ([3]; NCI-H441 cells, 4 days) [nM]	Kd ([2]; 1:1 binding model) [nM]	SMILES	HRAS /KRAS [1, 5]	NRAS /KRAS [4, 8]	HRAS /KRAS [1, 9]	NRAS /KRAS [4, 10]
0.55	89.4				CCO[C@@H]1C[C@H]2C(=O)NC3(CCC3)C(=O)N(C)[C@@H](C(CC)CC)C(=O)N(C)[C@H](C(=O)N3CCCC3)CC(=O)N(C)[C@@H](COC)C(=O)N[C@@H]([C@@H](C)CC)C(=O)N(C)CC(=O)N(C)[C@H]3C/C=C\CCN(C3=O)[C@@H](CC3CCCCC3)C(=O)N(C)CC(=O)N[C@@H](CCc3cc(F)c(C(F)(F)F)c(F)c3)C(=O)N2C1 [PP1438]	A (a compound having 10 or more and less than 20 is denoted as A)	AA (a compound having 20 or more is denoted as AA)		
			4.1	0.045	CCC[C@H]1C(=O)N[C@@H]([C@@H](C)CC)C(=O)N2CCC[C@H]2C(=O)N(C)[C@H]2C/C=C\CCN(C2=O)[C@@H](Cc2ccc(C)cc2)C(=O)N(C)CC(=O)N[C@@H](CCc2ccc(C(F)(F)F)c(OC)c2)C(=O)N2C[C@@H](C)C[C@H]2C(=O)N(C)C2(CCC2)C(=O)N(C)[C@@H](C2CCCC2)C(=O)N(C)[C@H](C(=O)N(C)C)CC(=O)N1C [PP2368]			A (a compound having 10 or more and less than 20 is denoted as A)	A (a compound having 10 or more and less than 20 is denoted as A)
0.12	6.2				CCO[C@@H]1C[C@H]2C(=O)NC3(CCC3)C(=O)N(C)[C@@H](C3CCCC3)C(=O)N(C)[C@H](C(=O)N3CCCC3)CC(=O)N(C)[C@@H](CC(C)C)C(=O)N[C@@H]([C@@H](C)CC)C(=O)N(C)CC(=O)N(C)[C@H]3C/C=C\CCN(C3=O)[C@@H](Cc3ccc(C(F)(F)F)cc3)C(=O)N(C)CC(=O)N[C@@H](CCc3cc(F)c(C(F)(F)F)c(F)c3)C(=O)N2C1 [PP1295]	A (a compound having 10 or more and less than 20 is denoted as A)	AA (a compound having 20 or more is denoted as AA)		
			190	3	CC[C@H](C)[C@@H]1NC(=O)[C@H](COC)N(C)C(=O)C[C@@H](C(=O)N(C)C)N(C)C(=O)[C@H](C2CCCC2)N(C)C(=O)C2(CC(C)(C)C2)NC(=O)[C@@H]2C[C@@H](OC3CCCC3)CN2C(=O)[C@H](CCc2cc(F)c(C(F)(F)F)c(F)c2)NC(=O)CN(C)C(=O)[C@H](CC2CCCCC2)N2CC/C=C\C[C@@H](C2=O)N(C)C(=O)CN(C2CC2)C1=O [PP2630]			B (a compound having 3 or more and less than 10 is denoted as B)	A (a compound having 10 or more and less than 20 is denoted as A)
